Tests used:
GSPT1 = test: Western blot, degradation of substrate protein in hPBMCs; assay type: cell-based, Human
Procedure: (§1) Conventional Western blot assay was performed to evaluate the effects of the compounds of the present disclosure on the expression of target proteins in cells. • (1) Cell Seeding and Protein Harvesting: Human peripheral blood mononuclear cells (hPBMCs) at a density of 1×10^6 cells/mL were thawed according to the PBMC Recovery Protocol (Milecell Biotechnologies Inc, Shanghai). […] After 24 hours of compounds treatment, cells were harvested and lysed in RIPA protein lysate containing protease inhibitors on ice for 30 min, followed by centrifugation. The supernatant was aspirated as the extracted total cell protein. The protein concentration of the supernatant was determined using the conventional BCA (Bicinchoninic Acid) assay. • (2) To the collected supernatant, 5X SDS sample loading buffer was added, followed by denaturation at 95°C for 5 minutes. The denatured samples were then separated by SDS-PAGE electrophoresis on a polyacrylamide gel, transferred onto a nitrocellulose membrane (0.45 µm NC membrane), blocked with blocking buffer at room temperature for 1 hour, and subjected to antibody incubation and development procedures according to the antibody manufacturer's instructions (Cell Signaling Technology Company).
(§2) Half-Maximal Degradation Concentration value (the drug concentration required for degrading proteins by 50%, abbreviated as DC50) reads method: comparing the grayscale values of Western blot bands from drug-treated samples with those from blank DMSO-treated controls, and identifying the drug concentration range at which the grayscale value is half that of the DMSO-treated control bands.
(§3) DC50 values can be calculated using ImageJ software to measure grayscale values of Western blot bands from drug-treated samples. The concentration-response curve is fitted to estimate the drug concentration corresponding to half the grayscale value.
(§4) Target protein remaining (%) refers to the percentage of target protein remaining in cells after treatment with protein degrader compounds.
(§5) Calculation method for target protein remaining (%): Use ImageJ software to measure grayscale values of Western blot bands from drug (protein degrader)-treated samples. The grayscale value of drug-treated bands is divided by that of internal control protein bands, and the resulting quotient is normalized to obtain the relative percentage of remaining target protein after protein degrader treatment.
(§6) Target protein degradation rate (%) = 1−target protein remaining (%). [formula]

[1] = target: T1, human Cereblon WT GST-tagged protein (Homo sapiens, UniProt Q96SW2); test: CRBN-binding affinity, HTRF (CEREBLON BINDING kit); conditions: for inhibition at 0.5 µM: read-out: Inhibition Rate at 0.5 µM (%); for inhibition at 2 µM: read-out: Inhibition Rate at 2 µM (%)
T1 construct: purchased CISBIO 64BDCRBNPEH
T1 sequence (Q96SW2 whole entry): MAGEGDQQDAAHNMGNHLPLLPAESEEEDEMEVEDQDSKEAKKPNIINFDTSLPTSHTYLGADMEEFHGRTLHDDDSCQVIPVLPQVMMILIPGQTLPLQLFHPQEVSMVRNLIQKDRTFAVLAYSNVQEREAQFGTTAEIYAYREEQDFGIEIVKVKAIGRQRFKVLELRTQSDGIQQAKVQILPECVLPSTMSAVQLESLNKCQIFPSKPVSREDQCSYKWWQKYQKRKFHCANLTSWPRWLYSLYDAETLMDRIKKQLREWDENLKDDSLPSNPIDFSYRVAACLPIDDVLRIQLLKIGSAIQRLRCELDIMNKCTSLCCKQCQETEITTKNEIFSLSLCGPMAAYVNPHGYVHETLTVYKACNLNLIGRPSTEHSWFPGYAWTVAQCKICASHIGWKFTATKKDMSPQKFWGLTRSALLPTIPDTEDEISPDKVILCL

WEE1 = target: T2, WEE1 (Homo sapiens, UniProt P30291+Q96SW2); test: Western blot, degradation of substrate protein in hPBMCs; assay type: cell-based
T2 construct: effects of the compounds of the present disclosure on the expression of target proteins in cells; endogenous in cells; host or cells: human PBMCs (Milecell Biotechnologies)
T2 sequence (P30291 whole entry): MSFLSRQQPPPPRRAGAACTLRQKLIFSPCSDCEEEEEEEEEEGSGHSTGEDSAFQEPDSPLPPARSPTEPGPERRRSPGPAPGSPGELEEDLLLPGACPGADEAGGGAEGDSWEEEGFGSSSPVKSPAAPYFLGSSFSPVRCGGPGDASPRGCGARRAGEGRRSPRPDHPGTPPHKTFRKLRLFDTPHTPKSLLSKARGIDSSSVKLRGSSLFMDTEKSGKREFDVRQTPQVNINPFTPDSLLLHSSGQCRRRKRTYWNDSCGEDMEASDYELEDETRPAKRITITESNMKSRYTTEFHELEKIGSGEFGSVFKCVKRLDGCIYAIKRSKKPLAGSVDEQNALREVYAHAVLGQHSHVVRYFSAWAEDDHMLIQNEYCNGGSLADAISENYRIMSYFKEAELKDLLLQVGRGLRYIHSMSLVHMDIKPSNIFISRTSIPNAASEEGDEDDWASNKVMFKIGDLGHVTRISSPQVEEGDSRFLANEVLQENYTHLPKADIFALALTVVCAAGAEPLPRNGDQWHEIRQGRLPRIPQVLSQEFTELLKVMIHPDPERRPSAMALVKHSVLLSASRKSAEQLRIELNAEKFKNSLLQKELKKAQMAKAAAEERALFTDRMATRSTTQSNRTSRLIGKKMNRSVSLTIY
T2 sequence (Q96SW2 whole entry): as the sequence (Q96SW2 whole entry) above
T2 sequence (Q16531 whole entry partner): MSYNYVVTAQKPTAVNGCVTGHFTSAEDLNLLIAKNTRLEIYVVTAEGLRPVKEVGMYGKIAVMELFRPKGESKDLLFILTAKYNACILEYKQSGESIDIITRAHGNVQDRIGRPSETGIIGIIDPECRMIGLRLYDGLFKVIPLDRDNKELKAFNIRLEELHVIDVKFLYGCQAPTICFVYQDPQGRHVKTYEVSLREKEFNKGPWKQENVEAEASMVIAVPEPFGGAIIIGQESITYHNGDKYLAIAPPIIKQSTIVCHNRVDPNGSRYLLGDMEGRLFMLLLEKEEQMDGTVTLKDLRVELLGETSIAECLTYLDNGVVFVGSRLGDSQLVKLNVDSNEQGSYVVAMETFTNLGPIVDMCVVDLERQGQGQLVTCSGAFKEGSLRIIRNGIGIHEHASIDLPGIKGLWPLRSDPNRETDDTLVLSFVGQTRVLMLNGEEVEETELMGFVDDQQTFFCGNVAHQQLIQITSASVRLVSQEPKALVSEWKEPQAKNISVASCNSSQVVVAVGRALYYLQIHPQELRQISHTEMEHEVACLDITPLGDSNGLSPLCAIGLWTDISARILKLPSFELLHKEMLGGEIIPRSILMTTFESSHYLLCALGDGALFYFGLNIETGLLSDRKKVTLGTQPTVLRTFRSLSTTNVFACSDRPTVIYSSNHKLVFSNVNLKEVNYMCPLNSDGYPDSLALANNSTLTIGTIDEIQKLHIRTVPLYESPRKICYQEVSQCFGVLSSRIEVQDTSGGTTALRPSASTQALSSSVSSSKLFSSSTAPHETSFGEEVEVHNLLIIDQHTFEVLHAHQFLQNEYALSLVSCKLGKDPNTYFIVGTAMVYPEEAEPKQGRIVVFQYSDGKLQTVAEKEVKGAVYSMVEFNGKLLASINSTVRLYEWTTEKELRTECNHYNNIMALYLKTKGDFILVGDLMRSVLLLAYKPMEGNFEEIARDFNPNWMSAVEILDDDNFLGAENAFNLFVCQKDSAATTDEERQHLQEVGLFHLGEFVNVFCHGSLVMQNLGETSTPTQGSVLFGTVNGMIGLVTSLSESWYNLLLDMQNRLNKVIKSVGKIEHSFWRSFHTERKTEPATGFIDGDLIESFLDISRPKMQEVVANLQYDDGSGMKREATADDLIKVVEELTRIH
Procedure: as §1, §2, §3, §4, §5, §6

IKZF2 = target: T3, IKZF2 (Homo sapiens, UniProt Q96SW2+Q9UKS7); test: as above; assay type: cell-based
T3 construct: effects of the compounds of the present disclosure on the expression of target proteins in cells; endogenous in cells; host or cells: human PBMCs (Milecell Biotechnologies)
T3 sequence (Q9UKS7 whole entry): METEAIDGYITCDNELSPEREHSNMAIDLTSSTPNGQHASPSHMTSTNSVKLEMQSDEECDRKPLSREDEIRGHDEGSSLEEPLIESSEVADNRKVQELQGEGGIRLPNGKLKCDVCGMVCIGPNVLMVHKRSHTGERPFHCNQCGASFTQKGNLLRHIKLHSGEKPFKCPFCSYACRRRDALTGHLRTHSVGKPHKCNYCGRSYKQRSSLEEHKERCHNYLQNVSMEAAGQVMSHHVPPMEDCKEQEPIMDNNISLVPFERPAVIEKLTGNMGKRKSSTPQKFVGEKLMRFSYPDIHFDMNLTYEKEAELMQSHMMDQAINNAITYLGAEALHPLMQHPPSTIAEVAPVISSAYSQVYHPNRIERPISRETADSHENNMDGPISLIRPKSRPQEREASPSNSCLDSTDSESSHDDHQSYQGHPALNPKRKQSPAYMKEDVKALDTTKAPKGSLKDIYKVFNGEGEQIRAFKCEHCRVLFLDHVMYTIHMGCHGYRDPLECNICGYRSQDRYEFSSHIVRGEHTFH
T3 sequence (Q96SW2 whole entry): as the sequence (Q96SW2 whole entry) above
T3 sequence (Q16531 whole entry partner): as the sequence (Q16531 whole entry partner) above
Procedure: as §1, §2, §3, §4, §5, §6

IKZF1 = target: T4, IKZF1 (Homo sapiens, UniProt Q13422+Q96SW2); test: as above; assay type: cell-based
T4 construct: effects of the compounds of the present disclosure on the expression of target proteins in cells; endogenous in cells; host or cells: human PBMCs (Milecell Biotechnologies)
T4 sequence (Q13422 whole entry): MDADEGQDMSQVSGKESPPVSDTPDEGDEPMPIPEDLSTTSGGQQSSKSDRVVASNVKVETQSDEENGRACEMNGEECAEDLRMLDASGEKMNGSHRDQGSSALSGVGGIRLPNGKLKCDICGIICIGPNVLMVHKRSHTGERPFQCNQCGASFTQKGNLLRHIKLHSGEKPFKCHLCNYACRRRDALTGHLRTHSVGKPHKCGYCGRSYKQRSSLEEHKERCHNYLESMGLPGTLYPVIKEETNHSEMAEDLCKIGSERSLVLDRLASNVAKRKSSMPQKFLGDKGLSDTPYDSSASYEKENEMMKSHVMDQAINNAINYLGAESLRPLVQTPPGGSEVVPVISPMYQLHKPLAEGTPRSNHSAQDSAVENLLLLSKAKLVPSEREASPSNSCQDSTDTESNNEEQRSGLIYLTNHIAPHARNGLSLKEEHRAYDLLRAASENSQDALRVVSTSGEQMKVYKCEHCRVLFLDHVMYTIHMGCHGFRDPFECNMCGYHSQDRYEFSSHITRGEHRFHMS
T4 sequence (Q96SW2 whole entry): as the sequence (Q96SW2 whole entry) above
T4 sequence (Q16531 whole entry partner): as the sequence (Q16531 whole entry partner) above
Procedure: as §1, §2, §3, §4, §5, §6

CK1α = target: T5, CK1α (Homo sapiens, UniProt P48729+Q96SW2); test: as above; assay type: cell-based
T5 construct: effects of the compounds of the present disclosure on the expression of target proteins in cells; endogenous in cells; host or cells: human PBMCs (Milecell Biotechnologies)
T5 sequence (P48729 whole entry): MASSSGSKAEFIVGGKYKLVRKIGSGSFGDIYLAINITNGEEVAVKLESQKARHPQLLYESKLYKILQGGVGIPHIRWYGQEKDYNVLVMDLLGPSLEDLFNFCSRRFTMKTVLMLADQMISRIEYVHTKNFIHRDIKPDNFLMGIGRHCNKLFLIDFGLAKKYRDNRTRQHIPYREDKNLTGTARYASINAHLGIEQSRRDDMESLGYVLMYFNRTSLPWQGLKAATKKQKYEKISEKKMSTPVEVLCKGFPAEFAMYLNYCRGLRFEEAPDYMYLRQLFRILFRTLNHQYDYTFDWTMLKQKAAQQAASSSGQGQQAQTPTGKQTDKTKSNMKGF
T5 sequence (Q96SW2 whole entry): as the sequence (Q96SW2 whole entry) above
T5 sequence (Q16531 whole entry partner): as the sequence (Q16531 whole entry partner) above
Procedure: as §1, §2, §3, §4, §5, §6

IKZF3 = target: T6, IKZF3 (Homo sapiens, UniProt Q96SW2+Q9UKT9); test: as above; assay type: cell-based
T6 construct: effects of the compounds of the present disclosure on the expression of target proteins in cells; endogenous in cells; host or cells: human PBMCs (Milecell Biotechnologies)
T6 sequence (Q9UKT9 whole entry): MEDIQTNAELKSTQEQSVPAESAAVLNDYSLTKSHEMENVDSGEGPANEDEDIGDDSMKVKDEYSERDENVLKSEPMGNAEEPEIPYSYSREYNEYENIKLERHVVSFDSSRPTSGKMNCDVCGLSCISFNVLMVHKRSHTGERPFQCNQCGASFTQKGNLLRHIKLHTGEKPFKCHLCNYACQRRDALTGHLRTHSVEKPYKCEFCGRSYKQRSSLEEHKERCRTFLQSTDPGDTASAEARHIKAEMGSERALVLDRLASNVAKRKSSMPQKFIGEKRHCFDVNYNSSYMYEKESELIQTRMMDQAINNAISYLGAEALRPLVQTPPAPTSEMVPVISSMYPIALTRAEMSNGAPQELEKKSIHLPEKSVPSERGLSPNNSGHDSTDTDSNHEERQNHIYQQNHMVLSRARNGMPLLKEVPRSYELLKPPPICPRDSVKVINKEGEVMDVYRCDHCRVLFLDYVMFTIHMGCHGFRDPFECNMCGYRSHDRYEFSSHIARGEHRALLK
T6 sequence (Q96SW2 whole entry): as the sequence (Q96SW2 whole entry) above
T6 sequence (Q16531 whole entry partner): as the sequence (Q16531 whole entry partner) above
Procedure: as §1, §2, §3, §4, §5, §6

[2] = 24 hours treatment, compounds at 50 nM and 500 nM (concentration behind the class not stated)
[3] = Western blot, 24 hours of compound treatment, compounds tested at 50 nM and 500 nM (concentration for the table not stated)

O=C1CCC(N2Cc3c(CN4CCC(c5ncnc6sc(-c7ccccc7)cc56)CC4)cccc3C2=S)C(=O)N1 (stereo not shown) [GT-08929, 3-(4-((4-(6-phenylthieno[2,3-d]pyrimidin-4-yl)piperidin-1-yl)methyl)-1-thioxoisoindolin-2-yl)piperidine-2,6-dione]
GSPT1 substrate protein remaining % (GSPT1; [2]): B (80%< substrate protein remaining %≤ 100%)
inhibition at 0.5 µM [1]: 30 to 40%
inhibition at 2 µM [1]: 60 to 80%
Wee1 substrate protein remaining % (WEE1; [2]): A (0% ≤ substrate protein remaining % ≤ 80%)
IKZF2 substrate protein remaining % (IKZF2; [2]): B (80%< substrate protein remaining %≤ 100%)
IKZF 1 substrate protein remaining % (IKZF1; [2]): B (80%< substrate protein remaining %≤ 100%)
CK1α substrate protein remaining % (CK1α; [2]): B (80%< substrate protein remaining %≤ 100%)
IKZF3 substrate protein remaining % (IKZF3; [2]): B (80%< substrate protein remaining %≤ 100%)

Cc1sc2ncnc(N3CCCN(Cc4cccc5c4CN(C4CCC(=O)NC4=O)C5=S)CC3)c2c1C (stereo not shown) [GT-08917, 3-(4-((4-(5,6-dimethylthieno[2,3-d]pyrimidin-4-yl)-1,4-diazepan-1-yl)methyl)-1-thioxoisoindolin-2-yl)piperidine-2,6-dione]
GSPT1 substrate protein remaining % (GSPT1; [2]): A (0% ≤ substrate protein remaining % ≤ 80%)
inhibition at 0.5 µM [1]: 53 to 60%
inhibition at 2 µM [1]: 80 to 100%
Wee1 substrate protein remaining % (WEE1; [2]): A (0% ≤ substrate protein remaining % ≤ 80%)
IKZF2 substrate protein remaining % (IKZF2; [2]): B (80%< substrate protein remaining %≤ 100%)
IKZF 1 substrate protein remaining % (IKZF1; [2]): B (80%< substrate protein remaining %≤ 100%)
CK1α substrate protein remaining % (CK1α; [2]): B (80%< substrate protein remaining %≤ 100%)
IKZF3 substrate protein remaining % (IKZF3; [2]): B (80%< substrate protein remaining %≤ 100%)

CC1(C)CCC(CN2CC3CCC(C2)N3Cc2ccc3c(c2)CN(C2CCC(=O)NC2=O)C3=S)=C(c2ccc(Cl)cc2)C1 (stereo not shown) [GT-08163, 3-(5-((3-((4'-chloro-5,5-dimethyl-3,4,5,6-tetrahydro-[1,1'-biphenyl]-2-yl)methyl)-3,8-diazabicyclo[3.2.1]octan-8-yl)methyl)-1-thioxoisoindolin-2-yl)piperidine-2,6-dione]
GSPT1 substrate protein remaining % (GSPT1; [2]): A (0% ≤ substrate protein remaining % ≤ 80%)
inhibition at 0.5 µM [1]: 53 to 60%
inhibition at 2 µM [1]: 60 to 80%
Wee1 substrate protein remaining % (WEE1; [2]): A (0% ≤ substrate protein remaining % ≤ 80%)
IKZF2 substrate protein remaining % (IKZF2; [2]): B (80%< substrate protein remaining %≤ 100%)
IKZF 1 substrate protein remaining % (IKZF1; [2]): A (0% ≤ substrate protein remaining % ≤ 80%)
CK1α substrate protein remaining % (CK1α; [2]): B (80%< substrate protein remaining %≤ 100%)
IKZF3 substrate protein remaining % (IKZF3; [2]): B (80%< substrate protein remaining %≤ 100%)

O=C1CCC(N2Cc3c(CN4CCC(c5ccc(Br)cc5)CC4)cccc3C2=S)C(=O)N1 (stereo not shown) [GT-08592, 3-(4-((4-(4-bromophenyl)piperidin-1-yl)methyl)-1-thioxoisoindolin-2-yl)piperidine-2,6-dione]
GSPT1 substrate protein remaining % (GSPT1; [3]): B (80%< substrate protein remaining %≤ 100%)
inhibition at 0.5 µM [1]: 40 to 53%
inhibition at 2 µM [1]: 60 to 80%
Wee1 substrate protein remaining % (WEE1; [3]): A (0% ≤ substrate protein remaining % ≤ 80%)
IKZF2 substrate protein remaining % (IKZF2; [3]): B (80%< substrate protein remaining %≤ 100%)
IKZF 1 substrate protein remaining % (IKZF1; [3]): B (80%< substrate protein remaining %≤ 100%)
CK1α substrate protein remaining % (CK1α; [3]): B (80%< substrate protein remaining %≤ 100%)
IKZF3 substrate protein remaining % (IKZF3; [3]): B (80%< substrate protein remaining %≤ 100%)

Cc1cscc1N1CCN(Cc2ccc3c(c2)CN(C2CCC(=O)NC2=O)C3=S)CC1 (stereo not shown) [GT-05113, 3-(5-((4-(4-methylthiophen-3-yl)piperazin-1-yl)methyl)-1-thioxoisoindolin-2-yl)piperidine-2,6-dione]
GSPT1 substrate protein remaining % (GSPT1; [3]): A (0% ≤ substrate protein remaining % ≤ 80%)
IC50 ([1]; CRBN binding, HTRF, 3 hours at room temperature, read-out: HTRF IC50): < 100 nM
Wee1 substrate protein remaining % (WEE1; [3]): B (80%< substrate protein remaining %≤ 100%)
IKZF2 substrate protein remaining % (IKZF2; [3]): B (80%< substrate protein remaining %≤ 100%)
IKZF 1 substrate protein remaining % (IKZF1; [3]): A (0% ≤ substrate protein remaining % ≤ 80%)
CK1α substrate protein remaining % (CK1α; [3]): B (80%< substrate protein remaining %≤ 100%)
IKZF3 substrate protein remaining % (IKZF3; [3]): A (0% ≤ substrate protein remaining % ≤ 80%)

O=C1CCC(N2Cc3cc(CN4CCN(c5nsc6cc(F)ccc56)CC4)ccc3C2=S)C(=O)N1 (stereo not shown) [GT-09259, 3-(5-((4-(6-fluorobenzo[d]isothiazol-3-yl)piperazin-1-yl)methyl)-1-thioxoisoindolin-2-yl)piperidine-2,6-dione]
GSPT1 substrate protein remaining % (GSPT1; [2]): A (0% ≤ substrate protein remaining % ≤ 80%)
inhibition at 0.5 µM [1]: 53 to 60%
inhibition at 2 µM [1]: 80 to 100%
Wee1 substrate protein remaining % (WEE1; [2]): B (80%< substrate protein remaining %≤ 100%)
IKZF2 substrate protein remaining % (IKZF2; [2]): B (80%< substrate protein remaining %≤ 100%)
IKZF 1 substrate protein remaining % (IKZF1; [2]): B (80%< substrate protein remaining %≤ 100%)
CK1α substrate protein remaining % (CK1α; [2]): B (80%< substrate protein remaining %≤ 100%)
IKZF3 substrate protein remaining % (IKZF3; [2]): B (80%< substrate protein remaining %≤ 100%)

O=C1CCC(N2Cc3cc(CN4C5CC4CN(C(c4ccccc4)c4ccccc4)C5)ccc3C2=S)C(=O)N1 (stereo not shown) [GT-07738, 3-(5-((3-benzhydryl-3,6-diazabicyclo[3.1.1]heptan-6-yl)methyl)-1-thioxoisoindolin-2-yl)piperidine-2,6-dione]
GSPT1 substrate protein remaining % (GSPT1; [3]): A (0% ≤ substrate protein remaining % ≤ 80%)
inhibition at 0.5 µM [1]: 53 to 60%
inhibition at 2 µM [1]: 80 to 100%
Wee1 substrate protein remaining % (WEE1; [3]): B (80%< substrate protein remaining %≤ 100%)
IKZF2 substrate protein remaining % (IKZF2; [3]): A (0% ≤ substrate protein remaining % ≤ 80%)
IKZF 1 substrate protein remaining % (IKZF1; [3]): A (0% ≤ substrate protein remaining % ≤ 80%)
CK1α substrate protein remaining % (CK1α; [3]): B (80%< substrate protein remaining %≤ 100%)
IKZF3 substrate protein remaining % (IKZF3; [3]): B (80%< substrate protein remaining %≤ 100%)

Cc1nc(C2=CCN(Cc3cccc4c3CN(C3CCC(=O)NC3=O)C4=S)CC2)c2ccsc2n1 (stereo not shown) [GT-08959, 3-(4-((4-(2-methylthieno[2,3-d]pyrimidin-4-yl)-3,6-dihydropyridin-1(2H)-yl)methyl)-1-thioxoisoindolin-2-yl)piperidine-2,6-dione]
GSPT1 substrate protein remaining % (GSPT1; [2]): B (80%< substrate protein remaining %≤ 100%)
inhibition at 0.5 µM [1]: 60 to 80%
inhibition at 2 µM [1]: 80 to 100%
Wee1 substrate protein remaining % (WEE1; [2]): A (0% ≤ substrate protein remaining % ≤ 80%)
IKZF2 substrate protein remaining % (IKZF2; [2]): B (80%< substrate protein remaining %≤ 100%)
IKZF 1 substrate protein remaining % (IKZF1; [2]): B (80%< substrate protein remaining %≤ 100%)
CK1α substrate protein remaining % (CK1α; [2]): B (80%< substrate protein remaining %≤ 100%)
IKZF3 substrate protein remaining % (IKZF3; [2]): B (80%< substrate protein remaining %≤ 100%)

O=C1CCC(N2Cc3c(CN4CCN(c5c(F)cncc5Cl)CC4)cccc3C2=S)C(=O)N1 (stereo not shown) [GT-08802, 3-(4-((4-(3-chloro-5-fluoropyridin-4-yl)piperazin-1-yl)methyl)-1-thioxoisoindolin-2-yl)piperidine-2,6-dione]
GSPT1 substrate protein remaining % (GSPT1; [3]): B (80%< substrate protein remaining %≤ 100%)
inhibition at 0.5 µM [1]: 53 to 60%
inhibition at 2 µM [1]: 80 to 100%
Wee1 substrate protein remaining % (WEE1; [3]): A (0% ≤ substrate protein remaining % ≤ 80%)
IKZF2 substrate protein remaining % (IKZF2; [3]): B (80%< substrate protein remaining %≤ 100%)
IKZF 1 substrate protein remaining % (IKZF1; [3]): B (80%< substrate protein remaining %≤ 100%)
CK1α substrate protein remaining % (CK1α; [3]): B (80%< substrate protein remaining %≤ 100%)
IKZF3 substrate protein remaining % (IKZF3; [3]): B (80%< substrate protein remaining %≤ 100%)

O=C1CCC(N2Cc3cc(CN4CCC(c5cccc6c(F)cccc56)CC4)ccc3C2=S)C(=O)N1 (stereo not shown) [GT-09275, 3-(5-((4-(5-fluoronaphthalen-1-yl)piperidin-1-yl)methyl)-1-thioxoisoindolin-2-yl)piperidine-2,6-dione]
GSPT1 substrate protein remaining % (GSPT1; [2]): A (0% ≤ substrate protein remaining % ≤ 80%)
inhibition at 0.5 µM [1]: 30 to 40%
inhibition at 2 µM [1]: 60 to 80%
Wee1 substrate protein remaining % (WEE1; [2]): B (80%< substrate protein remaining %≤ 100%)
IKZF2 substrate protein remaining % (IKZF2; [2]): B (80%< substrate protein remaining %≤ 100%)
IKZF 1 substrate protein remaining % (IKZF1; [2]): B (80%< substrate protein remaining %≤ 100%)
CK1α substrate protein remaining % (CK1α; [2]): B (80%< substrate protein remaining %≤ 100%)
IKZF3 substrate protein remaining % (IKZF3; [2]): B (80%< substrate protein remaining %≤ 100%)
